Measurements published in US6391892B1, “Naphthyl pharmaceutical compounds” (Eli Lilly and Company, priority 1995, dated 2002).

System: ovariectomized (OVX) female Sprague Dawley rats
Assay: Osteoporosis Test Procedure (ovariectomized rat, femur density)
Format: in vivo
Details: orally administered in 20% hydroxypropyl cyclodextrin, daily for 35 days, compared to intact, vehicle treated controls
From the text: Seventy-five day old female Sprague Dawley rats (weight range of 200 to 225 g) are obtained from Charles River Laboratories (Portage, Mich.). The animals are either bilaterally ovariectomized (OVX) or exposed to a Sham surgical procedure at Charles River Laboratories, and then shipped after one week. Upon arrival, they are housed in metal hanging cages in groups of 3 or 4 per cage and have ad libitum access to food (calcium content approximately 0.5%) and water for one week. Room temperature is maintained at 22.2°±1.70° C. with a minimum relative humidity of 40%. The photoperiod in the room is 12 hours light and 12 hours dark.
After a one week acclimation period (therefore, two weeks post-OVX) daily dosing with test compound is initiated. […] The animals are then sacrificed by asphyxiation with CO2, the uterus is removed through a midline incision, and a wet uterine weight is determined.
Following the General Preparation Procedure, infra, the rats are treated daily for 35 days (6 rats per treatment group) and sacrificed by carbon dioxide asphyxiation on the 36th day. The 35 day time period is sufficient to allow maximal reduction in bone density, measured as described herein. […]
The right femurs are excised and digitilized x-rays generated and analyzed by an image analysis program (NIH image) at the distal metaphysis. […]

In the case of C#C[C@]1(O)CC[C@H]2[C@@H]3CCc4cc(O)ccc4[C@H]3CC[C@@]21C [ethynyl estradiol, 17α-ethynyl estradiol], the “reduction in femur density caused by ovariectomy” value is reported as “prevented this loss”.
